According to patent US11427558B1, “Indazoles and azaindazoles as LRRK2 inhibitors” (ESCAPE Bio, Inc., priority 2019, dated 2022):

Key:
[1] = target: Recombinant wild type LRRK2 protein (Homo sapiens (Human), UniProt Q5S007); experiment: LRRK2 kinase activity, LanthaScreen TR-FRET assay (wild type); assay type: biochemical; conditions: LRRKtide 400 nM, 25 μM ATP, 60 min; read-out: LRRK2 WT IC50
Experimental: (§1) LRRK2 kinase activity was measured using a LanthaScreen™ Kinase Activity Assay from ThermoFisher Scientific. Recombinant wild type or G2019S-LRRK2 protein (Life Technologies, PR8604B or PV4881, respectively), was incubated with a fluorescein-labeled peptide substrate called LRRKtide that is based upon ezrin/radixin/moesin (ERM) (Life Technologies, PV4901) in the presence of ATP and serially diluted compound. […] Compound-dependent inhibition of the TR-FRET signal was used to generate a concentration-response curve for IC50 determination.
(§2) After 60 min incubation at room temperature, the reaction was stopped by addition of 10 μL of 2× stop solution containing a final concentration of 2 nM anti-pERM antibody and 10 mM EDTA. […] The ratio of the 520 nm and 495 nm emission was used to analyze the data.

[2] = target: Recombinant G2019S-LRRK2 protein (Homo sapiens (Human), UniProt Q5S007, G2019S); experiment: LRRK2 kinase activity, LanthaScreen TR-FRET assay (G2019S); assay type: biochemical; conditions: LRRKtide 400 nM, 25 μM ATP, 60 min
Experimental: as §1, §2

Recombinant G2019S-LRRK2 protein, sequence (Q5S007 whole entry G2019S): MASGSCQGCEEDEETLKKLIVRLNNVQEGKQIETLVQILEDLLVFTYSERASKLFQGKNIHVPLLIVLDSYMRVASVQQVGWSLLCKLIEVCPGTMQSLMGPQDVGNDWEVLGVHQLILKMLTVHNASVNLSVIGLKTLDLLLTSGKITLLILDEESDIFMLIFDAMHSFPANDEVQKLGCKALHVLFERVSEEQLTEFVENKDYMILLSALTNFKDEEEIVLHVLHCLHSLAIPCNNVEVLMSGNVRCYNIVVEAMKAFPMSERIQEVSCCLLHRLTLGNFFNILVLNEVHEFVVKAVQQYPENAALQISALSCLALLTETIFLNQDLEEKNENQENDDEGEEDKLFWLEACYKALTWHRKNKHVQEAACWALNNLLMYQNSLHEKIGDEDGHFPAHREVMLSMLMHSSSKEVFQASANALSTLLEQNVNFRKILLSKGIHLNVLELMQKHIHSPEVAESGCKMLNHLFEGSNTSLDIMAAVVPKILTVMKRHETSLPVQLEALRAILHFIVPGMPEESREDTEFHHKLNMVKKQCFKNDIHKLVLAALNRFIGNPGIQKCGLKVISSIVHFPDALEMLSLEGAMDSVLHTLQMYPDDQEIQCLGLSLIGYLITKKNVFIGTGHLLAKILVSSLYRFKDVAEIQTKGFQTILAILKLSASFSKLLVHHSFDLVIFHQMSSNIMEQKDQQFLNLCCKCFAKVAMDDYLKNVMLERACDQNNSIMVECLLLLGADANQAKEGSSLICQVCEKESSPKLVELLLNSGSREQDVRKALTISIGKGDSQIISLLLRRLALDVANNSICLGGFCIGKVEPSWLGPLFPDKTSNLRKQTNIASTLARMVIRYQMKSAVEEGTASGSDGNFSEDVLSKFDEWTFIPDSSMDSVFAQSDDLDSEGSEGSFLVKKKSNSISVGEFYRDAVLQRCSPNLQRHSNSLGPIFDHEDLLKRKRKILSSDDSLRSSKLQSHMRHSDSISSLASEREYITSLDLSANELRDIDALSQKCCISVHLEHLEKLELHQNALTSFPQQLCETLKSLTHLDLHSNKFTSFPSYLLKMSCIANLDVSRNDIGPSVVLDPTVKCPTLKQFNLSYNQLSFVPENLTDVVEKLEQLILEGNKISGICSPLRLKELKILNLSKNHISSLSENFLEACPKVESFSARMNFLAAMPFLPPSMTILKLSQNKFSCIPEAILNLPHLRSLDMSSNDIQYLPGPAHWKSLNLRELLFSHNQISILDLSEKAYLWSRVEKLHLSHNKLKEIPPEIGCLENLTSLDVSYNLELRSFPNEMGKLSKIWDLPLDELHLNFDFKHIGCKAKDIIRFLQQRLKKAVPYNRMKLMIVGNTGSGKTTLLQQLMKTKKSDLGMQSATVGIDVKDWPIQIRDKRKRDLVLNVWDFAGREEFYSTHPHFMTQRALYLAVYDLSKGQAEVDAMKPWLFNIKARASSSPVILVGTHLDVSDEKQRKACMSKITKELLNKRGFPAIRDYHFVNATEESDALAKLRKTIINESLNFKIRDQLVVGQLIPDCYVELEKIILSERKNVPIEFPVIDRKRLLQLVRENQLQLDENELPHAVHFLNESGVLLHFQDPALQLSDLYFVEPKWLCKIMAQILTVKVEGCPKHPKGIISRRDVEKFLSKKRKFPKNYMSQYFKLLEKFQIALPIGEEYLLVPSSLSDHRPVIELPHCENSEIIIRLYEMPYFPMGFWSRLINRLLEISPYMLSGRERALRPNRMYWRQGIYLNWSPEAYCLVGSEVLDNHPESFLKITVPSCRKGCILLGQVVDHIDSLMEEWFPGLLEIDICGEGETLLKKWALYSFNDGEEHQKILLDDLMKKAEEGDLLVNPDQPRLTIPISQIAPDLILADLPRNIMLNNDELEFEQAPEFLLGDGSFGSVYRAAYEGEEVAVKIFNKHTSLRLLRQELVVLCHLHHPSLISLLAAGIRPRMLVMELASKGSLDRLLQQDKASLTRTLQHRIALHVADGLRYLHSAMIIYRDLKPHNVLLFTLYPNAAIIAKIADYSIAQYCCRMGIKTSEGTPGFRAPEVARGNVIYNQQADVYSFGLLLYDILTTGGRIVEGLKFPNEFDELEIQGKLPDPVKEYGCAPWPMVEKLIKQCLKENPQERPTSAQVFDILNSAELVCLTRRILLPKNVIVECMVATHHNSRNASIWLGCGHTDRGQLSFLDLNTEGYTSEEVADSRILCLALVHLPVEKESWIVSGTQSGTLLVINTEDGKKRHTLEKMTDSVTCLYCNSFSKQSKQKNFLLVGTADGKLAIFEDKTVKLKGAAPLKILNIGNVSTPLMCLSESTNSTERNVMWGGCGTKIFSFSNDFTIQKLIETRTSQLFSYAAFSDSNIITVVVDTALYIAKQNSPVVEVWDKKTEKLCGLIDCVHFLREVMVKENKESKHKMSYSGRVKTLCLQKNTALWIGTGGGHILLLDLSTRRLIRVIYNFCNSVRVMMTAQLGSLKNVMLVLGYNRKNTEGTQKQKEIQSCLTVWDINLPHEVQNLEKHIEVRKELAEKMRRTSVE
Recombinant wild type LRRK2 protein, sequence (Q5S007 whole entry): as the sequence (Q5S007 whole entry G2019S) above, with S2019G counted along it

| Structure (SMILES) | IC50 [1] [nM] | IC50 [2] [nM] |
| --- | --- | --- |
| Cc1c(C#N)nn(C)c1C(=O)Nc1ccc2[nH]nc(-c3ccoc3)c2c1 [Example 92, 3-Cyano-N-(3-(furan-3-yl)-1H-indazol-5-yl)-1,4-dimethyl-1H-pyrazole-5-carboxamide] | 100 to 1000 | < 100 |
| Cc1c(C#N)nn(C)c1C(=O)Nc1ccc2[nH]nc(-c3cnn(C(F)F)c3)c2c1 [Example 195, 3-Cyano-N-(3-(1-(difluoromethyl)-1H-pyrazol-4-yl)-1H-indazol-5-yl)-1,4-dimethyl-1H-pyrazole-5-carboxamide] | < 100 | < 100 |
| Cc1cc(C#N)cnc1C(=O)Nc1ccc2[nH]nc(N3CCC3)c2c1 [Example 253, N-(3-(Azetidin-1-yl)-1H-indazol-5-yl)-5-cyano-3-methylpicolinamide] | 1000 to 10000 | 100 to 1000 |
| N#Cc1ccc(F)c(C(=O)Nc2ccc3[nH]nc(-c4cnco4)c3c2)c1F [Example 188, 3-Cyano-2,6-difluoro-N-(3-(oxazol-5-yl)-1H-indazol-5-yl)benzamide] | < 100 | < 100 |
| COC(C)c1n[nH]c2ccc(NC(=O)c3ncc(C#N)c(C)c3C)cc12 (centres unmarked) [Example 269, 5-Cyano-N-(3-(1-methoxyethyl)-1H-indazol-5-yl)-3,4-dimethylpicolinamide] | > 10000 | 1000 to 10000 |
| Cc1cc(C#N)cnc1C(=O)Nc1ccc2[nH]nc(-c3cnn(C(F)F)c3)c2c1 [Example 32, 5-Cyano-N-(3-(1-(difluoromethyl)-1H-pyrazol-4-yl)-1H-indazol-5-yl)-3-methylpicolinamide] | 100 to 1000 | < 100 |
| Cc1cc(C#N)cnc1C(=O)Nc1ccc2[nH]nc(-c3cccc(OC(F)(F)F)c3)c2c1 [Example 54, 5-Cyano-3-methyl-N-(3-(3-(trifluoromethoxy)phenyl)-1H-indazol-5-yl)picolinamide] | 1000 to 10000 | 100 to 1000 |
| COc1cncc(-c2n[nH]c3ccc(NC(=O)c4ncc(C#N)cc4C)cc23)c1 [Example 68, 5-Cyano-N-(3-(5-methoxypyridin-3-yl)-1H-indazol-5-yl)-3-methylpicolinamide] | 100 to 1000 | < 100 |
| Cc1c(C#N)cnc(C(=O)Nc2ccc3[nH]nc(/C=C/c4ccncc4)c3c2)c1C [Example 281, (E)-5-Cyano-3,4-dimethyl-N-(3-(2-(pyridin-4-yl)vinyl)-1H-indazol-5-yl)picolinamide] | < 100 | < 100 |
| Cc1cc(C#N)cnc1C(=O)Nc1ccc2[nH]nc(-c3ccncc3)c2c1 [Example 31, 5-Cyano-3-methyl-N-(3-(pyridin-4-yl)-1H-indazol-5-yl)picolinamide] | 100 to 1000 | < 100 |
| Cc1cc(C#N)cnc1C(=O)Nc1ccc2[nH]nc(-c3cc(C#N)cs3)c2c1 [Example 130, 5-Cyano-N-(3-(4-cyanothiophen-2-yl)-1H-indazol-5-yl)-3-methylpicolinamide] | < 100 | < 100 |
| Cc1cc(C#N)cnc1C(=O)Nc1ncc2[nH]nc(-c3ccoc3)c2n1 [Example 161, 5-Cyano-N-(3-(furan-3-yl)-1H-pyrazolo[4,3-d]pyrimidin-5-yl)-3-methylpicolinamide] | 1000 to 10000 | 100 to 1000 |
| Cc1c(C#N)cnc(C(=O)Nc2ccc3[nH]nc(-c4ccoc4)c3c2)c1C [Example 67, 5-Cyano-N-(3-(furan-3-yl)-1H-indazol-5-yl)-3,4-dimethylpicolinamide] | < 100 | < 100 |
| Cc1c(C(=O)Nc2ccc3[nH]nc(C(C)C)c3c2)nc(Cl)c(C#N)c1C [Example 270, 6-Chloro-5-cyano-N-(3-isopropyl-1H-indazol-5-yl)-3,4-dimethylpicolinamide] | < 100 | < 100 |
| Cc1cc(C#N)cnc1C(=O)Nc1ccc2[nH]nc(-c3ccc(CN4CCOCC4)s3)c2c1 [Example 102, 5-Cyano-3-methyl-N-(3-(5-(morpholinomethyl)thiophen-2-yl)-1H-indazol-5-yl)picolinamide] | 100 to 1000 | < 100 |
| Cc1c(C#N)cnc(C(=O)Nc2ccc3[nH]nc(-c4cnco4)c3c2)c1C [Example 158, 5-Cyano-3,4-dimethyl-N-(3-(oxazol-5-yl)-1H-indazol-5-yl)picolinamide] | < 100 | < 100 |
| Cc1cc(C#N)cnc1C(=O)Nc1ccc2[nH]nc(-c3cncc(Cl)c3)c2c1 [Example 121, N-(3-(5-Chloropyridin-3-yl)-1H-indazol-5-yl)-5-cyano-3-methylpicolinamide] | 100 to 1000 | < 100 |
| Cc1ccc(-c2n[nH]c3ccc(NC(=O)c4ncc(C#N)cc4C)cc23)cc1 [Example 56, 5-Cyano-3-methyl-N-(3-(p-tolyl)-1H-indazol-5-yl)picolinamide] | 100 to 1000 | < 100 |

| Structure (SMILES) | IC50 [1] [nM] | IC50 [2] [nM] |
| --- | --- | --- |
| Cc1cc(C#N)cnc1C(=O)Nc1ccc2[nH]nc(Br)c2c1 [Example 106, N-(3-Bromo-1H-indazol-5-yl)-5-cyano-3-methylpicolinamide] | 1000 to 10000 | < 100 |
| N#Cc1cnc(C(=O)Nc2ccc3[nH]nc(-c4ccoc4)c3c2)c(O)c1 [Example 154, 5-Cyano-N-(3-(furan-3-yl)-1H-indazol-5-yl)-3-hydroxypicolinamide] | 100 to 1000 | < 100 |
| Cc1cc(C#N)cnc1C(=O)Nc1ccc2[nH]nc(-c3ccc(N4CCN(C)CC4)cc3)c2c1 [Example 45, 5-Cyano-3-methyl-N-(3-(4-(4-methylpiperazin-1-yl)phenyl)-1H-indazol-5-yl)picolinamide] | < 100 | < 100 |
| N#Cc1ccnc(C(=O)Nc2ccc3[nH]nc(-c4ccoc4)c3c2)c1Cl [Example 144, 3-Chloro-4-cyano-N-(3-(furan-3-yl)-1H-indazol-5-yl)picolinamide] | < 100 | < 100 |
| Cc1cc(C#N)cnc1C(=O)Nc1ccc2[nH]nc(-c3cccc(C#N)c3)c2c1 [Example 41, 5-Cyano-N-(3-(3-cyanophenyl)-1H-indazol-5-yl)-3-methylpicolinamide] | 100 to 1000 | < 100 |
| Cc1c(C#N)cnc(C(=O)Nc2ccc3[nH]nc(-c4ccnc(N5CCOCC5)c4)c3c2)c1C [Example 277, 5-Cyano-3,4-dimethyl-N-(3-(2-morpholinopyridin-4-yl)-1H-indazol-5-yl)picolinamide] | < 100 | < 100 |
| Cc1cc(C#N)cnc1C(=O)Nc1ccc2[nH]nc(-c3ccnc(C#N)c3)c2c1 [Example 113, 5-Cyano-N-(3-(2-cyanopyridin-4-yl)-1H-indazol-5-yl)-3-methylpicolinamide] | 100 to 1000 | < 100 |
| N#Cc1cc(C(=O)Nc2ccc3[nH]nc(-c4ccncc4)c3c2)ccn1 [Example 22, 2-Cyano-N-(3-(pyridin-4-yl)-1H-indazol-5-yl)isonicotinamide] | < 100 | < 100 |
| Cc1cc(C#N)cnc1C(=O)Nc1ccc2[nH]nc(-c3cnoc3C)c2c1 [Example 36, 5-Cyano-3-methyl-N-(3-(5-methylisoxazol-4-yl)-1H-indazol-5-yl)picolinamide] | > 10000 | < 100 |
| COc1cc(C#N)ccc1C(=O)Nc1ccc2[nH]nc(-c3cnco3)c2c1 [Example 200, 4-Cyano-2-methoxy-N-(3-(oxazol-5-yl)-1H-indazol-5-yl)benzamide] | < 100 | < 100 |
| Cc1cc(C#N)cnc1C(=O)Nc1ccc2[nH]nc(N3CC(F)(F)C3)c2c1 [Example 254, 5-Cyano-N-(3-(3,3-difluoroazetidin-1-yl)-1H-indazol-5-yl)-3-methylpicolinamide] | 1000 to 10000 | 100 to 1000 |
| Cc1cc(C#N)cnc1C(=O)Nc1ccc2[nH]nc(-c3ccccc3)c2c1 [Example 40, 5-Cyano-3-methyl-N-(3-phenyl-1H-indazol-5-yl)picolinamide] | 100 to 1000 | < 100 |
| Cc1nc(C(=O)Nc2ccc3[nH]nc(C4CC4)c3c2)c(Cl)c(C)c1C#N [Example 283, 3-chloro-5-cyano-N-(3-cyclopropyl-1H-indazol-5-yl)-4,6-dimethylpicolinamide] | 100 to 1000 | < 100 |
| Cc1c(C#N)cnc(C(=O)Nc2ccc3[nH]nc(-c4cncc(Cl)c4)c3c2)c1C [Example 171, N-(3-(5-Chloropyridin-3-yl)-1H-indazol-5-yl)-5-cyano-3,4-dimethylpicolinamide] | < 100 | < 100 |
| C=C(C)c1c(C#N)cccc1C(=O)Nc1ccc2[nH]nc(-c3cnco3)c2c1 [Example 214, 3-Cyano-N-(3-(oxazol-5-yl)-1H-indazol-5-yl)-2-(prop-1-en-2-yl)benzamide] | < 100 | < 100 |
| Cc1ccc(-c2n[nH]c3ccc(NC(=O)c4ncc(C#N)cc4C)cc23)cc1F [Example 63, 5-Cyano-N-(3-(3-fluoro-4-methylphenyl)-1H-indazol-5-yl)-3-methylpicolinamide] | 100 to 1000 | < 100 |
| Cc1c(C#N)cnc(C(=O)Nc2ccc3[nH]nc(-c4ccncn4)c3c2)c1C [Example 230, 5-Cyano-3,4-dimethyl-N-(3-(pyrimidin-4-yl)-1H-indazol-5-yl)picolinamide] | 100 to 1000 | < 100 |
| Cc1cc(C#N)cnc1C(=O)Nc1ccc2[nH]nc(-c3ccoc3)c2n1 [Example 105, 5-Cyano-N-(3-(furan-3-yl)-1H-pyrazolo[4,3-b]pyridin-5-yl)-3-methylpicolinamide] | 100 to 1000 | – |
